Test results reported in patent EP3797781A1, “USE OF EC-7072 AND SYNERGIC COMPOSITIONS THEREOF IN TREATMENT OF CHRONIC LYMPHOCYTIC LEUKEMIA” (priority 2019, dated 2021).

Columns and labels:
[1] = test system: T cells (CD3^+CD56^-); assay: T cell numbers, viability and apoptosis in PBMCs (flow cytometry, DiOC6(3)/PI staining); assay type: cell-based, human
Method: To evaluate absolute cell numbers, an equal volume of PKH26 reference microbeads (Sigma-Aldrich) was added to each sample after staining for immune subset identification. Microbeads (5x10^3) were acquired by flow cytometry and absolute numbers of each immune population within the sample were calculated. Normalized percentage values were calculated considering the control (DMSO)-treated cells as 100%.
(§1) Cell viability and apoptosis were evaluated by double-staining with the mitochondrial inner transmembrane potential (ΔΨm)-sensitive dye DiOC6(3) (3,3'-dihexyloxacarbocyanine iodide; Sigma-Aldrich) and the exclusion dye propidium iodide (PI; Immunostep), allowing identification of apoptotic [DiOC6(3)^low PI^-] and dead [PI^+] cells as per Proc. Natl. Acad. Sci. U.S.A. (2014) 111(8):3020-3025 and Methods Mol. Biol. (2016) 1419:1-16. Briefly, PBMCs were resuspended in culture medium containing 20 nM DiOC6(3) and incubated for 30 minutes at 37 °C. Then, PI (1 µg/mL) was added and cells were further incubated for 10 minutes at room temperature (RT). Cells were analyzed by flow cytometry considering DiOC6(3)^+PI^- cells as viable. In some experiments, apoptosis was evaluated by staining with Annexin V/PI. Thus, PBMCs were incubated in Annexin V binding buffer containing 5 µg/mL Annexin V-FITC (Biolegend) for 15 minutes at RT and PI (1 µg/mL) was subsequently added. Data were normalized to the untreated control as a percentage. Only samples with at least 60% of viable cells (DiOC6(3)^+; Annexin V^-) in the control (DMSO) condition were employed in this study.
The effect of EC-7072 toward healthy immune subsets, T lymphocytes and natural killer (NK) cells, which are chronically exposed to leukemia cells in the peripheral blood of patients with CLL was assessed by: • (i) incubating PBMCs isolated from patients with CLL (n = 10) following treatment with increasing concentrations of EC-7072 (0 - 400 nM) for 24 hours. Numbers of T cells (CD3^+CD56^-) (Figure 2A) and NK cells (CD3^-CD56^+) (Figure 2B) were evaluated by flow cytometry and normalized to their respective control (DMSO) condition for each individual patient to obtain percentage of relative number of T cells and NK cells, respectively; • (ii) incubating PBMCs isolated from patients with CLL (n = 6 - 10) following treatment with increasing concentrations of EC-7072 (0 - 400 nM) for 24 hours. Viability of immune subsets (leukemia cells, T cells and NK cells) was determined by cytofluorometric assessment of DiOC6(3)/PI staining and normalized to their respective control (DMSO) condition for each individual patient to obtain percentage of viable [DiOC6(3)^+] cells (Figures 2C and 2D); • (iii) incubating PBMCs isolated from patients with CLL (n = 11) following treatment with DMSO or EC-7072 (200 nM) for 24 hours. Numbers of CD4^+ cells (Figure 2E) and CD8^+ T cells (Figure 2F) were evaluated by flow cytometry and normalized to their respective control (DMSO) condition for each individual experiment; • (iv) incubating PBMCs isolated from healthy donors (n = 15) following treatment with EC-7072 (200 nM) for 24 hours. […]

[2] = test system: primary CLL cells; assay: Leukemia cell viability and apoptosis by DiOC6(3)/PI staining and flow cytometry; assay type: cell-based, human
Method: as §1
The in vitro cytotoxic activity of EC-7072 against primary CLL cells was assessed by: • (i) incubating PBMCs isolated from patients with CLL (n = 13) following treatment with increasing concentrations of EC-7072 (0 - 400 nM) for 24 hours. Numbers of leukemia cells were evaluated by flow cytometry and normalized to their respective control (DMSO) condition for each individual patient to obtain percentage of leukemia cells (Figure 1A); • (ii) incubating PBMCs from patients with CLL (n = 10) with or without EC-7072 (100-400 nM) for 24 hours. Viability of leukemia cells was determined by cytofluorometric assessment of DiOC6(3)/PI staining and normalized to their respective control condition to obtain percentage viability (Figure 1B); • (iii) incubating PBMCs from patients with CLL (n = 10) with increasing concentrations of EC-7072 (0 - 400 nM) for 24 hours. Apoptosis of leukemia cells was determined by DiOC6(3)/PI staining and flow cytometry to obtain the mean percentages of apoptotic [DiOC6(3)^low PI^-] and dead [PI^+] cells (Figure 1C); • (iv) incubating PBMCs from patients with CLL (n = 10) with or without EC-7072 (200 nM) for 12 to 72 hours. Viability of leukemia cells was determined by DiOC6(3)/PI staining and normalized to their respective control condition to obtain percentage viability (Figure 1D); • (v) incubating PBMCs from patients with CLL (n = 24) with MTA (200 nM) or EC-7072 (200 nM) for 24 hours. Leukemia cell death was determined by DiOC6(3)/PI staining and flow cytometry to obtain the mean percentages of apoptotic [DiOC6(3)^low PI^-] and dead [PI^+] cells (Figure 1E); • (vi) incubating PBMCs from patients with CLL (n = 63) or healthy donors (n = 20) with or without EC-7072 (200 nM) for 24 hours. Viability of leukemia cells and healthy B cells was evaluated by DiOC6(3)/PI staining and normalized to their respective control condition to obtain percentage viability (Figure 1F); • (vii) incubating PBMCs from patients with CLL (n = 62) following treatment with EC-7072 (200 nM) for 24 hours and obtaining a cytogenetic profile for each patient. Viability of leukemia cells was evaluated by DiOC6(3)/PI staining and normalized to their respective control (DMSO) condition for each individual patient to obtain the percentage of viable [DiOC6(3)^+] cells (Figure 1G); • (viii) incubating PBMCs from patients with CLL (n = 59) following treatment with EC-7072 (200 nM) for 24 hours and determining mutational status of IgHV for each patient. Viability of leukemia cells was evaluated by DiOC6(3)/PI staining and normalized to their respective control (DMSO) condition for each individual patient to obtain the percentage of viable [DiOC6(3)^+] cells (Figure 1H). […]

SMILES: CO[C@@H]([C@@H]1Cc2cc3cc(O[C@H]4C[C@@H](O[C@H]5C[C@@H](O)[C@H](O)[C@@H](C)O5)[C@H](O)[C@@H](C)O4)c(C)c(O)c3c(O)c2C(=O)[C@H]1O[C@H]1C[C@@H](O[C@H]2C[C@@H](O[C@H]3C[C@](C)(O)[C@H](O)[C@@H](C)O3)[C@@H](O)[C@@H](C)O2)[C@H](O)[C@@H](C)O1)[C@@H](O)C(C)=O [EC-7072, mithramycin SK]
- T cell numbers and viability ([1]; 0 - 400 nM, 24 hours, PBMCs from patients with CLL): negligible effects
- ratio of apoptosis to cell death in T cells ([1]; 200 nM, 24 hours, PBMCs from healthy donors (n = 4), Figure 2Q): comparable to that induced by EC-7073
- viability of T cells, comparison of mithralogs ([1]; 200 nM, 24 hours, PBMCs from healthy donors (n = 10), Figure 2N): not exhibit toxicity
- cell numbers and viability of T lymphocytes ([1]; 200 nM, 24 hours, PBMCs from healthy donors (n = 15), compared with PBMCs from patients with CLL): comparable effects
- toxicity against T cells compared with fludarabine ([1]; EC-7072 200 nM 24 hours vs fludarabine 10 µM 24 hours, PBMCs from patients with CLL (n = 6 - 8), Figure 4F): significantly less toxic than fludarabine
- cell death at 6 hours ([2]; 200 nM, 6 hours, PBMCs from patients with CLL (n = 8), Figure 6C): not triggering detectable cell death
- CLL cell death at 8 hours ([2]; 200 nM, 8 hours, n = 8, Figure 7K): does not result in noticeable CLL cell death
- ratio of apoptosis in CLL cells relative to CLL cell death ([2]; 200 nM, 24 hours, PBMCs from patients with CLL (n = 6), exception: EC-14041, Figure 2P): higher ratio of apoptosis in CLL cells relative to CLL cell death than other mithralogs
- antileukemic activity (apoptotic [DiOC6(3)^low PI^-] and dead [PI^+] cells) ([2]; 200 nM, 24 hours, PBMCs from patients with CLL (n = 24), compared with MTA 200 nM, Figure 1E): comparable to that of MTA
- antileukemic activity on isolated leukemia cells versus PBMCs (apoptotic and dead cells) ([2]; 200 nM, 24 hours, isolated leukemia cells from patients with CLL (n = 24)): mimicked
- viability of leukemia cells by mutational status of IgHV ([2]; 200 nM, 24 hours, n = 59, Figure 1H): did not significantly affect the sensitivity
- viability of leukemia cells by cytogenetic profile ([2]; 200 nM, 24 hours, n = 62, patients with cytogenetic aberrations incl. del(17p) or del(11q), Figure 1G): no differences in the sensitivity
- viability of leukemia cells ([2]; 100 - 400 nM for 24 hours, 200 nM for 12 to 72 hours, PBMCs from patients with CLL (n = 10), dose- and time-dependent, Figures 1B-1D): significantly decreased
- leukemia cell survival upon BCR stimulation with anti-IgM antibodies ([2]; EC-7072 200 nM in combination with α-IgM (10 µg/mL), 24 hours, n = 15): significantly rescued leukemia cell survival
- leukemia cell death in the presence of microenvironment-derived soluble factors ([2]; EC-7072 200 nM with CD40L (100 ng/mL), BAFF (50 ng/mL), TNF-α (40 ng/mL), IL-6 (40 ng/mL) or IL-4 (40 ng/mL), 24 hours, n = 7): none of the soluble factors tested significantly affected the leukemia cell death
- leukemia cell viability in co-culture with OP9 stromal cells ([2]; co-culture with OP9 cells 72 hours, EC-7072 200 nM for the last 24 hours, n = 7): did not enhance leukemia cell viability
- percentage viability of leukemia cells, comparison of mithralogs ([2]; each at 200 nM, 24 hours, PBMCs from patients with CLL (n = 10), Figure 2M): second only to the mithralog EC-7073
- CLL cell viability compared with idelalisib or fludarabine ([2]; range of doses, EC-7072 and fludarabine 24 hours, idelalisib 48 hours, n = 4 - 6, Figure 4A): reduced CLL cell viability to a greater extent than idelalisib or fludarabine
